Active and inactive are the calls of the source. No cut-off for these calls is given here.
Experiments:
3T3-L1 [1] = test: Cytotoxicity against mouse 3T3L1 cells assessed as cell viability at up to 40 ug/ml; format: cell-based
3T3-L1 [2] = test: Inhibition of adipogenesis in mouse 3T3L1 cells assessed as reduction of triglyceride accumulation at 80 ug/ml after 8 days; format: functional
3T3-L1 [3] = test: Inhibition of adipogenesis in mouse 3T3L1 cells assessed as reduction of GPDH activity at 80 ug/ml after 8 days; format: functional
3T3-L1 [4] = test: Inhibition of adipogenesis in mouse 3T3L1 cells assessed as reduction of lipid accumulation at 40 ug/ml after 8 days relative to control; format: functional; details: 3T3-L1, 192 h
3T3-L1 [5] = test: Cytotoxicity against mouse 3T3L1 cells assessed as cell viability at up to 80 ug/ml; format: cell-based
3T3-L1 [6] = test: Inhibition of adipogenesis in mouse 3T3L1 cells assessed as reduction of SREBP1c mRNA expression at 80 ug/ml after 8 days by RT-PCR analysis relative to control; format: functional; details: 3T3-L1, 192 h
3T3-L1 [7] = test: Inhibition of adipogenesis in mouse 3T3L1 cells assessed as reduction of SREBP1c protein expression at 80 ug/ml after 8 days by Western blotting analysis; format: functional, cell-based
3T3-L1 [8] = test: Inhibition of adipogenesis in mouse 3T3L1 cells assessed as reduction of FAS mRNA expression at 80 ug/ml after 8 days by RT-PCR analysis; format: functional, cell-based
3T3-L1 [9] = test: Inhibition of adipogenesis in mouse 3T3L1 cells assessed as reduction of ACC mRNA expression at 80 ug/ml after 8 days by RT-PCR analysis; format: functional, cell-based

SMILES	Activity (3T3-L1 [1])	inhibition (3T3-L1 [2])	inhibition (3T3-L1 [3])	also measured
COC(=O)C(C)CC(=O)C[C@@H](C)[C@H]1CC(=O)[C@@]2(C)C3=C(C(=O)C[C@]12C)[C@@]1(C)CCC(=O)C(C)(C)[C@@H]1C[C@@H]3O (stereo partly specified) [METHYL GANODERATE D]	Non-toxic	–	–	–
C[C@H](CCC(=O)O)[C@H]1CC(=O)[C@@]2(C)C3=C(C(=O)C[C@]12C)[C@@]1(C)CC[C@H](O)C(C)(C)[C@@H]1C[C@@H]3O [LUCIDENIC ACID N]	Non-toxic	Active	Active	–
CCCCOC(=O)CC[C@@H](C)[C@H]1CC(=O)[C@@]2(C)C3=C(C(=O)C[C@]12C)[C@@]1(C)CCC(=O)C(C)(C)[C@@H]1C[C@@H]3O [BUTYL LUCIDENATE A]	Non-toxic	–	–	inhibition at 40 µg/mL (3T3-L1 [4]): 45%
CCCCOC(=O)[C@H](C)CC(=O)C[C@@H](C)[C@H]1CC(=O)[C@@]2(C)C3=C(C(=O)C[C@]12C)[C@@]1(C)CC[C@H](O)C(C)(C)[C@@H]1C[C@@H]3O [BUTYL GANODERATE B]	Non-toxic	Active	Active	inhibition at 40 µg/mL (3T3-L1 [4]): 41%
COC(=O)C(C)CC(=O)C[C@@H](C)[C@H]1CC(=O)[C@@]2(C)C3=C(C(=O)[C@@H](OC(C)=O)[C@]12C)[C@@]1(C)CC[C@H](O)C(C)(C)[C@@H]1CC3=O (stereo partly specified) [METHYL GANODERATE H]	Non-toxic	–	–	–
C[C@H](CC(=O)C[C@@H](C)[C@H]1CC(=O)[C@@]2(C)C3=C(C(=O)C[C@]12C)[C@@]1(C)CCC(=O)C(C)(C)[C@@H]1CC3=O)C(=O)O [GANODERIC ACID E]	Non-toxic	–	–	–
COC(=O)C(C)CC(=O)C[C@@H](C)[C@H]1CC(=O)[C@@]2(C)C3=C(C(=O)C[C@]12C)[C@@]1(C)CC[C@H](O)C(C)(C)[C@@H]1C[C@@H]3O (stereo partly specified) [METHYL GANODERATE B]	Non-toxic	Active	Active	–
COC(=O)CC[C@@H](C)[C@H]1CC(=O)[C@@]2(C)C3=C(C(=O)C[C@]12C)[C@@]1(C)CCC(=O)C(C)(C)[C@@H]1CC3=O [METHYL LUCIDENATE F]	Non-toxic	–	–	–
COC(=O)[C@H](C)CC(=O)C[C@@H](C)[C@H]1C[C@H](O)[C@@]2(C)C3=C(C(=O)C[C@]12C)[C@@]1(C)CCC(=O)C(C)(C)[C@@H]1C[C@@H]3O	Non-toxic	–	–	Activity (3T3-L1 [5]): Non-toxic
CCCCOC(=O)C(C)CC(=O)C[C@@H](C)[C@H]1C[C@H](O)[C@@]2(C)C3=C(C(=O)C[C@]12C)[C@@]1(C)CCC(=O)C(C)(C)[C@@H]1C[C@@H]3O (stereo partly specified) [BUTYL GANODERATE A]	Non-toxic	Active	Active	inhibition at 40 µg/mL (3T3-L1 [4]): 48%; Activity (3T3-L1 [5]): Non-toxic; inhibition at 80 µg/mL (3T3-L1 [6]): 26%; inhibition (3T3-L1 [7]): Active; inhibition (3T3-L1 [8]): Active; inhibition (3T3-L1 [9]): Active
COC(=O)CC[C@@H](C)[C@H]1CC(=O)[C@@]2(C)C3=C(C(=O)[C@@H](OC(C)=O)[C@]12C)[C@@]1(C)CC[C@H](O)C(C)(C)[C@@H]1CC3=O [METHYL LUCIDENATE E2]	Non-toxic	–	–	–
C[C@H](CC(=O)C[C@@H](C)[C@H]1C[C@H](O)[C@@]2(C)C3=C(C(=O)C[C@]12C)[C@@]1(C)CCC(=O)C(C)(C)[C@@H]1C[C@@H]3O)C(=O)O [GANODERIC ACID A]	Non-toxic	–	–	Activity (3T3-L1 [5]): Non-toxic; inhibition at 80 µg/mL (3T3-L1 [2]; 3T3-L1, 192 h): 36%; inhibition at 80 µg/mL (3T3-L1 [3]; 3T3-L1, 192 h): 48%
COC(=O)CC[C@@H](C)[C@H]1CC(=O)[C@@]2(C)C3=C(C(=O)C[C@]12C)[C@@]1(C)CCC(=O)C(C)(C)[C@@H]1C[C@@H]3O [METHYL LUCIDENATE A]	Non-toxic	–	–	–
CC(CC(=O)C[C@@H](C)[C@H]1C[C@H](O)[C@@]2(C)C3=C(C(=O)C[C@]12C)[C@@]1(C)CCC(=O)C(C)(C)[C@@H]1CC3)C(=O)O (stereo partly specified) [GANOLUCIDIC ACID A]	Non-toxic	–	–	–
CCCCOC(=O)CC[C@@H](C)[C@H]1CC(=O)[C@@]2(C)C3=C(C(=O)C[C@]12C)[C@@]1(C)CC[C@H](O)C(C)(C)[C@@H]1C[C@@H]3O [BUTYL LUCIDENATE N]	Non-toxic	Active	Active	inhibition at 40 µg/mL (3T3-L1 [4]): 56%; inhibition at 80 µg/mL (3T3-L1 [6]): 38%; inhibition (3T3-L1 [7]): Active; inhibition (3T3-L1 [8]): Active; inhibition (3T3-L1 [9]): Active
CC(CC(=O)C[C@@H](C)[C@H]1CC(=O)[C@@]2(C)C3=C(C(=O)C[C@]12C)[C@@]1(C)CC[C@H](O)C(C)(C)[C@@H]1C[C@@H]3O)C(=O)O (stereo partly specified) [GANODERIC ACID B]	Non-toxic	Active	Active	–
COC(=O)CC[C@@H](C)[C@H]1CC(=O)[C@@]2(C)C3=C(C(=O)[C@@H](OC(C)=O)[C@]12C)[C@@]1(C)CC[C@H](O)C(C)(C)[C@@H]1C[C@@H]3O [METHYL LUCIDENATE P]	Non-toxic	–	–	–

Reference: ChEMBL document CHEMBL1221340, “Lanostane triterpenes from Ganoderma lucidum suppress the adipogenesis in 3T3-L1 cells through down-regulation of SREBP-1c” (Bioorg Med Chem Lett, 2010)
